Test results taken from the supplement of paper PMC10307832.

Tests used:
Experiment in all cases: relative viability (nuclei count vs DMSO), 5 days (fraction); higher = more cells survive
[1] = compound: O=c1[nH]cc(F)c(=O)[nH]1 [5-Fluorouracil] + CC(=O)Nc1cccc(-n2c(=O)n(C3CC3)c(=O)c3c(Nc4ccc(I)cc4F)n(C)c(=O)c(C)c32)c1 [Trametinib] (partner 0.02 µM)
Procedure, shortened: (§1)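 Lung cancer cell lines were pin-tool dosed in 1536-well plates on the day after seeding, with either a lone drug or a fixed anchor-drug dose plus five library-drug doses (not always all listed) in √10 steps. Nuclei were counted on 4× images after 5 days. Relative viability is the ratio of treated-well to vehicle-well nuclei counts, with each value a median of duplicate plates.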

[2] = compound: O=c1[nH]cc(F)c(=O)[nH]1 [5-Fluorouracil] + CS(=O)(=O)CCNCc1ccc(-c2ccc3ncnc(Nc4ccc(OCc5cccc(F)c5)c(Cl)c4)c3c2)o1 [Lapatinib] (partner 2 µM)
Procedure, shortened: as §1

[3] = compound: O=c1[nH]cc(F)c(=O)[nH]1 [5-Fluorouracil] + Cc1nc(Nc2ncc(C(=O)Nc3c(C)cccc3Cl)s2)cc(N2CCN(CCO)CC2)n1 [Dasatinib] (partner 0.075 µM)
Procedure, shortened: as §1

[4] = compound: CN[C@@H]1C[C@H]2O[C@@](C)([C@@H]1OC)n1c3ccccc3c3c4c(c5c6ccccc6n2c5c31)C(=O)NC4 [Staurosporine] + Nc1ncn([C@H]2C[C@H](O)[C@@H](CO)O2)c(=O)n1 [Decitabine] (partner 2 µM)
Procedure, shortened: as §1

[5] = compound: CC1=C(CC(=O)O)c2cc(F)ccc2/C1=C\c1ccc([S+](C)[O-])cc1 [Sulindac] + CCNC(=O)c1noc(-c2cc(C(C)C)c(O)cc2O)c1-c1ccc(CN2CCOCC2)cc1 [Luminespib] (partner 0.01 µM)
Procedure, shortened: as §1

## UMC-11
[1]; first compound 0.02 µM
  relative viability: 0.711
[1]; first compound 0.2 µM
  relative viability: 0.673
[1]; first compound 0.6325 µM
  relative viability: 0.448
[2]; first compound 0.02 µM
  relative viability: 0.905
[2]; first compound 0.2 µM
  relative viability: 0.746
[2]; first compound 0.6325 µM
  relative viability: 0.434
[2]; first compound 2 µM
  relative viability: 0.443
[3]; first compound 0.02 µM
  relative viability: 0.52
[3]; first compound 0.2 µM
  relative viability: 0.467
[3]; first compound 0.6325 µM
  relative viability: 0.438
[3]; first compound 2 µM
  relative viability: 0.358
[4]; first compound 0.005 µM
  relative viability: 0.76
[4]; first compound 0.05 µM
  relative viability: 0.192
[4]; first compound 0.1581 µM
  relative viability: 0.153
[4]; first compound 0.5 µM
  relative viability: 0.371
[5]; first compound 0.08 µM
  relative viability: 1.27
[5]; first compound 0.253 µM
  relative viability: 1.12
[5]; first compound 0.8 µM
  relative viability: 0.717
[5]; first compound 2.53 µM
  relative viability: 1.01
[5]; first compound 8 µM
  relative viability: 1.13
